Consider 11 compounds from patent publication EP0269947B2, “Antiviral phosphonomethoxyalkylene purine and pyrimidine derivatives” (priority 1986, dated 1988).

What all share (set-up): unit not given here
Test [1] concerns HSV-1. The test is described as follows: Colorimetric dye-uptake assay (neutral red), herpes simplex virus type 1. The class given is cell-based, Herpes simplex virus (HSV). To be noted: vero cells, 48 hr incubation, neutral red stain; ID50 by linear regression. How it is done:
(§1) Herpes simplex virus (HSV) strains wars grown and titered at 37°C in vero cells (African Green Monkey Kidney cells) and used for virus work before the tenth passage.
(§2) Cells were grown and maintained in Earle's Minimum Essential Medium (EMEM), Gibco Laboratories, supplemented with 0.75% sodium bicarbonate, 2mM 1-glutamine, Pen-strep. and 5-10% fetal calf serum.
(§3) For the primary screening, a colorimetric dye-uptake assay (McLaren, C., et al., "Antiviral Research," 3:323, 1983) is used employing rapidly growing vero cells. Briefly, cells, compound and virus dilutions are added onto 96-well tissue culture plates simultaneously using the cells, viruses and medium described above. After 48 hr. incubation at 37°C in 5% CO2 atmosphere, the overlay medium is removed and the cell sheets are stained with 0.04% neutral red solution. After 30 min. incubation at 37°C, the cell sheets are washed and the stain is eluted with 0.05 M sodium monophosphate in 47% ethanol and the O.D. is determined at 540 nm wave length.
(§4) The 50% inhibitory dose (ID50) for each drug is determined by linear regression analysis.

Test [2] relates to HSV-2. The test is described as follows: Colorimetric dye-uptake assay (neutral red), herpes simplex virus type 2. The class given is cell-based, Herpes simplex virus (HSV). To be noted: vero cells, 48 hr incubation, neutral red stain; ID50 by linear regression. How it is done:
as §1, §2, §3, §4

In test [3] the test system is HSV-1. Nature of the test: Plaque reduction assay, herpes simplex virus type 1. The class given is cell-based, Herpes simplex virus (HSV). The following applies: vero cells, 48-hour incubation; concentration reducing number of plaques by 50%. As to the method:
as §1, §2
(§5) The titer of HSV strains is determined by a plaque titration method (Roizman and Roane,"Virology," 15:75-79, 1961). Tissue culture 24-well petri dishes are seeded with cells and used for assays when approximately 75% monolayer. Volumes (0.1ml) of logarithmic dilutions of the virus strain are inoculated onto each of triplicate wells, and absorbed for one hour with intermittent shaking. The inoculum thereafter is removed, and 1 ml of 5-10% EMEM containing 0.3% human immune serum globulin is added. After a 48 hr. incubation period at 37°C in a 5% CO2 atmosphere, the overlay medium is removed and the cell sheets stained with Giemsa stain. The number of plaques is counted, the triplicate is averaged, and the number of plaque-forming units per ml is calculated.
(§6) The compounds are tested for activity against the herpes simplex strains using a stock solution of each compound freshly prepared. Appropriate dilution of each compound are made in 10% EMEM before usage. The antiviral efficacy of each compound is determined using the plaque reduction assay described above. Briefly, tissue culture 24-well plates, with approximately 75% cell monolayer are inoculated with approximately 50 plaque forming units of HSV per 0.1 ml, and the virus adsorbed for 1 hr, with intermittent shaking. After removal of the inoculum, 1 ml of 10% EMEM containing two-fold dilutions of the appropriate drug are added in triplicates. Triplicate wells/plate receives no drug and are used as a virus control. After a 48-hour incubation period, at 37°C in a 5% CO2 atmosphere, the overlay medium is removed, the cells stained as described above, and plaques are counted. The counts of triplicate wells are averaged, and the number of plaques in the presence of each drug dilution are calculated.
(§7) The antiviral potency of the drug is determined by ID50, the drug concentration necessary to reduce the number of plaques by 50% of those in the virus control cultures.

The subject of test [4] is HSV-2. Nature of the test: Plaque reduction assay, herpes simplex virus type 2. The class given is cell-based, Herpes simplex virus (HSV). To be noted: vero cells, 48-hour incubation; concentration reducing number of plaques by 50%. How it is done:
as §1, §2, §5, §6, §7
(Plaques are areas of infected cells; plaque reduction assays count them against a control.)

Test [5] deals with Murine leukemia virus (MuLV). Nature of the test: UV-XC plaque assay against murine retroviruses. The class given is cell-based. To be noted: MuLV in SC-1 cells. How it is done:
The compounds wore evaluated for antiviral activity against Murine leukemia virus (MuLV) strains using the UV-XC plaque assay (Rowe, et al., "Virology," 42:1136, 1970).
The MuLV strains were grown in feral mouse cells (SC-1) and used for antiviral tests using the UV-XC plaque assay. Briefly, SC-1 coils are grown as monolayers in 4-well tissue culture plates and inoculated with approximately 50-100 plaque forming units of MuLV in 0.5 ml of 5% EMEM containing 20 ug/ml DEAE/Dextran. After 1 hr. adsorbtion, the inoculum is removed and 5 ml of 5% EMEM containing three-fold dilutions of the appropriate drug are added. Five days later, the cultures are UV-irradiated with an ultraviolet lamp and rat XC sarcoma cells are added to the cultures. Three-four days after UV-irradiation, the cell cultures are stained with Giemsa stain and the plaques are enumerated. Antiviral activity is expressed in terms of the reduction in the mean number of UV-XC plaques counted in the drug treated, virus-infected cultures compared with mean number of plaques counted in untreated, virus-infected control cultures. The ID50 for each drug was determined.

In test [6] the test system is Human cytomegalovirus (HCMV) strain (AD169). The test is described as follows: Plaque reduction assay against human cytomegalovirus. To be noted: HCMV strain AD169 in MRC-5 cells. The class given is cell-based. As to the method: as §5, §6, §7
Human cytomegalovirus (HCMV) strain (AD169) was grown and titered at 37° in human embryonic lung (diploid) cells, MRC-5, and used for the antiviral assay.
The compounds are tested for activity against the HCMV using the procedure for the plaque reduction assay described above.

`COP(=O)(O)COCCn1cnc2c(=O)[nH]c(N)nc21` [Ex. 32]: the “Dye-Uptake HSV-1 ID50” value in the test on HSV-1 [1] is reported as 1.5. Moreover, the “Dye-Uptake HSV-2 ID50” value in the test with HSV-2 [2] is 3.8. Further, the “Plaque Reduction HSV-1 ID50” value with HSV-1 [3] is 1.6. Besides, the “Plaque Reduction HSV-2 ID50” value in the test with HSV-2 [4] is on record as 1.2. In addition, the “Muly ID50” value in test [5] came to 0.05.

`Nc1nc2c(ncn2COC(CO)CO)c(=O)[nH]1` [9-(1,3-Dihydroxypropoxymethyl)guanine, reference compound]: the “CMV ID50” value in test [6] is 1.2.

Consider `CC(COCP(=O)(O)O)n1cnc2c(=O)[nH]c(N)nc21` (centres unmarked) [Ex. 13], for which the “Dye-Uptake HSV-1 ID50” value in the test on HSV-1 [1] was 8.7. The “Dye-Uptake HSV-2 ID50” value in the test on HSV-2 [2] was found to be 10.4. Besides, the “Plaque Reduction HSV-1 ID50” value in the test on HSV-1 [3] is reported as 3.0. Also, the “Plaque Reduction HSV-2 ID50” value with HSV-2 [4] is reported as 3.3.

Turning to `Nc1nc2c(ncn2CCCOCP(=O)(O)O)c(=O)[nH]1` [Ex. 18], in test [6], the “CMV ID50” value was determined as 6.0. For the same compound, the “Muly ID50” value in test [5] amounted to 0.04.

On to `Nc1nc2c(ncn2COCCO)c(=O)[nH]1` [Acyclovir, reference compound], for which, in the test with HSV-1 [1], the “Dye-Uptake HSV-1 ID50” value is 0.5. Besides, the “Dye-Uptake HSV-2 ID50” value in the test on HSV-2 [2] was found to be 1.0. The “Plaque Reduction HSV-1 ID50” value in the test on HSV-1 [3] worked out at 0.3. Also, the “Plaque Reduction HSV-2 ID50” value in the test with HSV-2 [4] turned out to be 1.5.

`CCOP(=O)(O)COCCn1cnc2c(=O)[nH]c(N)nc21` [Ex. 7, 9-(2-(Monoethylphosphonomethoxy)ethyl)guanine]: the “Dye-Uptake HSV-1 ID50” value in the test on HSV-1 [1] is 12. For the same compound, the “Dye-Uptake HSV-2 ID50” value in the test on HSV-2 [2] worked out at 8. In addition, the “Plaque Reduction HSV-1 ID50” value in the test on HSV-1 [3] is listed as 4.8. In addition, the “Plaque Reduction HSV-2 ID50” value with HSV-2 [4] was 5.1. Besides, in test [6], the “CMV ID50” value is 0.23. The “Muly ID50” value in test [5] was 0.56.

As to `CC(C)OP(=O)(O)COCCn1cnc2c(=O)[nH]c(N)nc21` [Ex. 34], the “Plaque Reduction HSV-1 ID50” value with HSV-1 [3] is 74.9. Moreover, the “Plaque Reduction HSV-2 ID50” value in the test on HSV-2 [4] stood at 34.8. The “Muly ID50” value in test [5] was 1.72.

Regarding `Cc1cn([C@H]2C[C@H](N=[N+]=[N-])[C@@H](CO)O2)c(=O)[nH]c1=O` [3'-Azido-3'-deoxythymidine, reference compound], the “Muly ID50” value in test [5] stood at 0.0001.

As for `Nc1ncc2ncn(CCOCP(=O)(O)O)c2n1` [Ex. 25], in test [6], the “CMV ID50” value is listed as <0.032.

On to `Nc1ncnc2c1ncn2C[C@@H](CO)OCP(=O)(O)O` [(S)-9-(3-Hydroxy-2-phosphonomethoxy)propyl adenine, reference compound], for which, in the test with HSV-1 [1], the “Dye-Uptake HSV-1 ID50” value came out at 15.1. For the same compound, the “Dye-Uptake HSV-2 ID50” value in the test with HSV-2 [2] is reported as > 25. For the same compound, the “Plaque Reduction HSV-1 ID50” value with HSV-1 [3] is 13.8. In addition, the “Plaque Reduction HSV-2 ID50” value in the test on HSV-2 [4] is on record as 35.8. In test [6], the “CMV ID50” value is given as 0.13. The “Muly ID50” value in test [5] was determined as 2.0.

Consider `CCCOP(=O)(O)COCCn1cnc2c(=O)[nH]c(N)nc21` [Ex. 33], for which the “Plaque Reduction HSV-1 ID50” value in the test with HSV-1 [3] is 9.7. Also, in the test with HSV-2 [4], the “Plaque Reduction HSV-2 ID50” value was 9.9.
